Measured values reported in patent publication US4450269A, “Mono-5-substituted-3-chloro-4H-1,2,6-thiadiazin-4-one antifungal agents” (FMC Corporation, priority 1980, dated 1984).
Structures can show the parent of a compound that is named as a salt. Where two headings read alike, the source gives them in different places.

Key:
[1] = tested on: Pyricularia oryzae; assay type: cell-based; details: PO, 48 hours
[2] = tested on: Cladosporium cucumerinum; assay: Mycelial growth test; assay type: cell-based; details: CC; for inhibition at 5 ppm / inhibition at 10 ppm / inhibition at 40 ppm / inhibition at 20 ppm: Cladosporium cucumerinum, read-out: Percent Fungus Growth Inhibition; for inhibition at 5 ppm / inhibition at 10 ppm / inhibition at 40 ppm: 72 h; for inhibition at 20 ppm: CC20, 72 h; for Percent Fungus Growth Inhibition: 72 hours
Excerpt: |CC = Cladosporium cucumerinum

Compound	Spore Germination Rating ([1]; 1.0 ppm)	Spore Germination Rating ([1]; 2.5 ppm)	Spore Germination Rating ([1]; 10 ppm)	Spore Germination Rating ([1]; 40 ppm)	inhibition at 5 ppm ([2]; 5 ppm)	inhibition at 10 ppm ([2]; 10 ppm)	inhibition at 40 ppm ([2]; 40 ppm)	inhibition at 20 ppm [2]	Percent Fungus Growth Inhibition ([2]; 40 ppm)	Spore Germination Rating ([1]; 2.5 ppm, hydrochloride)	Percent Fungus Growth Inhibition ([2]; 5 ppm, hydrochloride)	Percent Fungus Growth Inhibition ([2]; 10 ppm, hydrochloride)	Percent Fungus Growth Inhibition ([2]; 40 ppm, hydrochloride)
O=c1c(Cl)nsnc1Oc1ccc(Cl)c(Cl)c1 [Compound 16, 3-chloro-5-(3,4-dichlorophenoxy)-4H--1,2,6-thiadiazin-4-one]	0 (0-10)	0 (0-10)	0 (0-10)	0 (0-10)	58%	54%	75%	67%	–	–	–	–	–
O=c1c(Cl)nsnc1Oc1ccc(Cl)cc1Cl [Compound 17, 3-chloro-5-(2,4-dichlorophenoxy)-4H--1,2,6-thiadiazin-4-one]	0 (0-10)	0 (0-10)	0 (0-10)	0 (0-10)	100%	100%	100%	100%	–	–	–	–	–
O=c1c(Cl)nsnc1Oc1c(Cl)cccc1Cl [Compound 18, 3-chloro-5-(2,6-dichlorophenoxy)-4H--1,2,6-thiadiazin-4-one]	4 (80-100)	2 (40-60)	0 (0-10)	0 (0-10)	83%	100%	100%	100%	–	–	–	–	–
O=c1c(Cl)nsnc1Oc1cccc(Cl)c1Cl [Compound 19, 3-chloro-5-(2,3-dichlorophenoxy)-4H--1,2,6-thiadiazin-4-one]	3 (60-80)	0 (0-10)	0 (0-10)	0 (0-10)	100%	100%	100%	100%	–	–	–	–	–
O=c1c(Cl)nsnc1Oc1cc(Cl)cc(Cl)c1 [Compound 20, 3-chloro-5-(3,5-dichlorophenoxy)-4H--1,2,6-thiadiazin-4-one]	1 (10-40)	0 (0-10)	0 (0-10)	0 (0-10)	100%	100%	100%	100%	–	–	–	–	–
Cc1cccc(Oc2nsnc(Cl)c2=O)c1 [Compound 21, 3-chloro-5-(3-methylphenoxy)-4H--1,2,6-thiadiazin-4-one]	4 (80-100)	0 (0-10)	0 (0-10)	0 (0-10)	38%	38%	85%	69%	–	–	–	–	–
Cc1ccccc1Oc1nsnc(Cl)c1=O [Compound 22, 3-chloro-5-(2-methylphenoxy)-4H--1,2,6-thiadiazin-4-one]	2 (40-60)	0 (0-10)	0 (0-10)	0 (0-10)	31%	46%	92%	69%	–	–	–	–	–
Cc1ccc(Oc2nsnc(Cl)c2=O)c(C)c1 [Compound 23, 3-chloro-5-(2,4-dimethylphenoxy)-4H--1,2,6-thiadiazin-4-one]	4 (80-100)	0 (0-10)	0 (0-10)	0 (0-10)	27%	38%	100%	81%	–	–	–	–	–
Cc1cccc(C)c1Oc1nsnc(Cl)c1=O [Compound 24, 3-chloro-5-(2,6-dimethylphenoxy)-4H--1,2,6-thiadiazin-4-one]	3 (60-80)	0 (0-10)	0 (0-10)	0 (0-10)	46%	65%	100%	100%	–	–	–	–	–
Cc1cc(C)cc(Oc2nsnc(Cl)c2=O)c1 [Compound 25, 3-chloro-5-(3,5-dimethylphenoxy)-4H--1,2,6-thiadiazin-4-one]	3 (60-80)	0 (0-10)	0 (0-10)	0 (0-10)	27%	50%	100%	77%	–	–	–	–	–
Nc1ccc(Oc2nsnc(Cl)c2=O)cc1 [Compound 26, 5-(4-aminophenoxy)-3-chloro-4H--1,2,6-thiadiazin-4-one]	4 (80-100)	2 (40-60)	0 (0-10)	0 (0-10)	37%	49%	–	49%	77%	–	–	–	–
Nc1ccc(Oc2nsnc(Cl)c2=O)cc1 [Compound 27, 5-(4-aminophenoxy)-3-chloro-4H--1,2,6-thiadiazine-4-one hydrochloride]	–	–	–	–	–	–	–	–	–	0 (0-10)	31%	40%	54%
CNC(=O)Nc1ccc(Oc2nsnc(Cl)c2=O)cc1 [Compound 28, 3-chloro-5-[4-(3-methylureido)-phenoxy]-4H--1,2,6-thiadiazin-4-one]	4 (80-100)	4 (80-100)	4 (80-100)	1 (10-40)	14%	26%	60%	26%	–	–	–	–	–
O=C(Nc1ccccc1)Nc1ccc(Oc2nsnc(Cl)c2=O)cc1 [Compound 29, 3-chloro-5-[4-(3-phenylureido)-phenoxy]-4H--1,2,6-thiadiazin-4-one]	4 (80-100)	4 (80-100)	4 (80-100)	2 (40-60)	14%	11%	31%	14%	–	–	–	–	–
O=c1c(Cl)nsnc1Oc1c(Cl)cc(Cl)cc1Cl [Compound 30, 3-chloro-5-(2,4,6-trichlorophenoxy)-4H--1,2,6-thiadiazin-4-one]	3 (60-80)	0 (0-10)	0 (0-10)	0 (0-10)	75%	100%	100%	100%	–	–	–	–	–
O=c1c(Cl)nsnc1Oc1c(Cl)c(Cl)c(Cl)c(Cl)c1Cl [Compound 31, 3-chloro-5-(pentachlorophenoxy)-4H--1,2,6-thiadiazine-4-one]	0 (0-10)	0 (0-10)	0 (0-10)	0 (0-10)	54%	57%	69%	60%	–	–	–	–	–
O=c1c(Cl)nsnc1Oc1cccc2ccccc12 [Compound 32, 3-chloro-5(1-naphthoxy)-4H-1,2,6-thiadiazin-4-one]	2 (40-60)	0 (0-10)	0 (0-10)	0 (0-10)	35%	46%	100%	69%	–	–	–	–	–
O=c1c(Cl)nsnc1Oc1ccccc1Br [Compound 34, 3-chloro-5-(2-bromophenoxy)-4H-1,2,6,-thiadiazin-4-one]	1 (10-40)	0 (0-10)	0 (0-10)	0 (0-10)	6%	28%	86%	61%	–	–	–	–	–
O=c1c(Cl)nsnc1Oc1ccc(O)cc1 [Compound 35, 3-chloro-5-(4-hydroxyphenoxy)-4H-1,2,6-thiadiazin-4-one]	2 (40-60)	0 (0-10)	0 (0-10)	0 (0-10)	0%	0%	92%	23%	–	–	–	–	–
O=C(Nc1ccccc1)Oc1ccc(Oc2nsnc(Cl)c2=O)cc1 [Compound 37, 3-chloro-5-[4-(phenylaminocarbonyloxy)phenoxy]-4H-1,2,6,-thiadiazin-4-one]	4 (80-100)	3 (60-80)	0 (0-10)	2 (40-60)	23%	29%	52%	35%	–	–	–	–	–
